From ChEMBL document CHEMBL1201862, “PubChem BioAssay data set” (2004)
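Dose response: 5 concentrations. Exposure: 48 h. Format: 96-well plates. Endpoint: linear interpolation; highest concentration if not reached. At the GI50, growth is halved.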 Activity calls are given as the source filed them. Cut-off read from the data, not from the text of the source: active = GI50 up to about 1.1 µM and inactive = higher.

What was measured:
Experiment in all cases: NCI-60 cell line screen, 48 h
OVCAR-5 = test system: OVCAR-5
NCI-H226 = test system: NCI-H226
U-251 = test system: U-251
CAKI-1 = test system: CAKI-1
LOX IMVI = test system: LOX IMVI
TK-10 = test system: TK-10
HCC 2998 = test system: HCC 2998
NCI-H522 = test system: NCI-H522
SF-268 = test system: SF-268
SK-MEL-5 = test system: SK-MEL-5
SK-OV-3 = test system: SK-OV-3
UACC-62 = test system: UACC-62
OVCAR-4 = test system: OVCAR-4
RPMI-8226 = test system: RPMI-8226
HCT-15 = test system: HCT-15
CCRF-CEM = test system: CCRF-CEM
K562 = test system: K562

| Compound | GI50 (OVCAR-5) | GI50 (NCI-H226) | GI50 (U-251) | GI50 (CAKI-1) | GI50 (LOX IMVI) | GI50 (TK-10) | GI50 (HCC 2998) | GI50 (NCI-H522) | GI50 (SF-268) | GI50 (SK-MEL-5) | GI50 (SK-OV-3) | GI50 (UACC-62) | GI50 (OVCAR-4) | GI50 (RPMI-8226) | GI50 (HCT-15) [µM] | GI50 (CCRF-CEM) | GI50 (K562) |
| --- | --- | --- | --- | --- | --- | --- | --- | --- | --- | --- | --- | --- | --- | --- | --- | --- | --- |
| CC1(Cc2ccccc2)NC(=S)NC1=O (stereo not drawn) | > 100 µM (inactive) | > 100 µM (inactive) | > 100 µM (inactive) | > 100 µM (inactive) | > 100 µM (inactive) | > 100 µM (inactive) | > 100 µM (inactive) | > 100 µM (inactive) | > 100 µM (inactive) | – | – | – | – | – | – | – | – |
| O=C(CSc1nnc(-c2ccc(/N=C\c3ccc(Cl)cc3)cc2)o1)Nc1ccc([N+](=O)[O-])cc1 | – | 21.9 µM (inactive) | 19.3 µM (inactive) | – | 10.6 µM (inactive) | 51.4 µM (inactive) | – | 20.9 µM (inactive) | 24.3 µM (inactive) | 18.4 µM (inactive) | 35.9 µM (inactive) | 18.9 µM (inactive) | 26.2 µM (inactive) | 2.45 µM (inactive) | 18.4 | 18.5 µM (inactive) | 21.2 µM (inactive) |
| O=C(O)C1(C(=O)O)CC1 | – | – | > 100 µM (inactive) | > 100 µM (inactive) | – | > 100 µM (inactive) | > 100 µM (inactive) | > 100 µM (inactive) | > 100 µM (inactive) | > 100 µM (inactive) | > 100 µM (inactive) | > 100 µM (inactive) | > 100 µM (inactive) | > 100 µM (inactive) | > 100 | > 100 µM (inactive) | > 100 µM (inactive) |
| CCc1c(C#N)c(=O)[nH]c(=O)n1CCN1CCN(C(=O)NCCCCCCNC(=O)N2CCN(CCn3c(CC)c(C#N)c(=O)[nH]c3=O)CC2)CC1 | – | – | > 100 µM (inactive) | > 100 µM (inactive) | > 100 µM (inactive) | > 100 µM (inactive) | > 100 µM (inactive) | – | – | > 100 µM (inactive) | > 100 µM (inactive) | > 100 µM (inactive) | > 100 µM (inactive) | > 100 µM (inactive) | > 100 | > 100 µM (inactive) | > 100 µM (inactive) |
| O=C(CSc1nnc(-c2ccc(/N=C\c3ccc(Cl)cc3)cc2)o1)Nc1cccc([N+](=O)[O-])c1 | – | > 100 µM (inactive) | > 100 µM (inactive) | – | > 100 µM (inactive) | > 100 µM (inactive) | – | 27.5 µM (inactive) | > 100 µM (inactive) | > 100 µM (inactive) | > 100 µM (inactive) | > 100 µM (inactive) | > 100 µM (inactive) | > 100 µM (inactive) | > 100 | > 100 µM (inactive) | > 100 µM (inactive) |
| O=C(c1nc2ccc(Cl)cc2nc1O)C(O)c1ccc2c(c1)OCO2 (stereo not drawn) | > 100 µM (inactive) | > 100 µM (inactive) | > 100 µM (inactive) | – | 98.9 µM (inactive) | > 100 µM (inactive) | > 100 µM (inactive) | 13.3 µM (inactive) | 91 µM (inactive) | – | > 100 µM (inactive) | 84.5 µM (inactive) | 71.4 µM (inactive) | 7.4 µM (inactive) | – | 4.17 µM (inactive) | 53.8 µM (inactive) |
| O=C(c1ccccc1)C(c1ccccc1)C1(O)C(=O)Nc2ccc(Br)cc21 (stereo not drawn) | > 100 µM (inactive) | 40.5 µM (inactive) | 65 µM (inactive) | 99.1 µM (inactive) | – | > 100 µM (inactive) | > 100 µM (inactive) | 20.9 µM (inactive) | 72.6 µM (inactive) | – | > 100 µM (inactive) | 20.1 µM (inactive) | 32.8 µM (inactive) | 17.9 µM (inactive) | 60.1 | 17.7 µM (inactive) | 18.9 µM (inactive) |
| Cc1c(C(=O)C/C(=N/NC(=O)C[N+](C)(C)C)C(=O)Nc2ccc(Cl)cc2)[n+]([O-])c2ccccc2[n+]1[O-] | > 100 µM (inactive) | > 100 µM (inactive) | > 100 µM (inactive) | > 100 µM (inactive) | > 100 µM (inactive) | > 100 µM (inactive) | > 100 µM (inactive) | > 100 µM (inactive) | > 100 µM (inactive) | > 100 µM (inactive) | – | > 100 µM (inactive) | > 100 µM (inactive) | > 100 µM (inactive) | > 100 | > 100 µM (inactive) | > 100 µM (inactive) |
| COc1ccccc1-c1cc(=O)c2cc(C)c(C)c(C(=O)O)c2o1 | > 100 µM (inactive) | – | > 100 µM (inactive) | – | > 100 µM (inactive) | > 100 µM (inactive) | > 100 µM (inactive) | > 100 µM (inactive) | > 100 µM (inactive) | > 100 µM (inactive) | > 100 µM (inactive) | > 100 µM (inactive) | > 100 µM (inactive) | > 100 µM (inactive) | > 100 | > 100 µM (inactive) | > 100 µM (inactive) |
| O=C1C(=O)N(c2nccs2)C(=O)C(=O)C1c1nc2ccccc2s1 | > 100 µM (inactive) | > 100 µM (inactive) | 83 µM (inactive) | > 100 µM (inactive) | > 100 µM (inactive) | > 100 µM (inactive) | > 100 µM (inactive) | – | > 100 µM (inactive) | – | > 100 µM (inactive) | > 100 µM (inactive) | > 100 µM (inactive) | > 100 µM (inactive) | > 100 | – | – |
| O=C1N(c2ccc(Cl)cc2)C(=O)C2(SC=NN2Cc2ccccc2)N1c1ccc(Cl)cc1 (stereo not drawn) | – | > 100 µM (inactive) | > 100 µM (inactive) | – | > 100 µM (inactive) | > 100 µM (inactive) | > 100 µM (inactive) | 7.76 µM (inactive) | > 100 µM (inactive) | > 100 µM (inactive) | > 100 µM (inactive) | > 100 µM (inactive) | > 100 µM (inactive) | 8.34 µM (inactive) | – | 7.57 µM (inactive) | 9.59 µM (inactive) |
| Cc1cc(Cl)ccc1NC(=O)C(=O)C(C(=O)c1ccc2ccccc2c1)C1OC(=O)c2ccccc21 (stereo not drawn) | 18.6 µM (inactive) | 2.3 µM (inactive) | 4.95 µM (inactive) | 11.6 µM (inactive) | 13.2 µM (inactive) | > 10 µM (inactive) | 10.2 µM (inactive) | 7.06 µM (inactive) | 4.08 µM (inactive) | 12.7 µM (inactive) | 15.7 µM (inactive) | 8.67 µM (inactive) | 7.6 µM (inactive) | 3.1 µM (inactive) | 18.7 | 1.11 µM (active) | 8.61 µM (inactive) |
| COc1cccc(N2C(=O)/C(=C/c3ccc(N(CCC#N)CCC#N)cc3)N=C2c2cc([N+](=O)[O-])ccc2Cl)c1 | 18.5 µM (inactive) | > 100 µM (inactive) | 59.2 µM (inactive) | > 100 µM (inactive) | – | – | 60.5 µM (inactive) | 55.8 µM (inactive) | > 100 µM (inactive) | 84.9 µM (inactive) | > 100 µM (inactive) | 39.1 µM (inactive) | > 100 µM (inactive) | 68.1 µM (inactive) | 50.4 | 48.8 µM (inactive) | 34.5 µM (inactive) |
| Nc1c(C(=O)Nc2ccccc2O)[n+]([O-])c2ccccc2[n+]1[O-] | > 100 µM (inactive) | > 100 µM (inactive) | 71.8 µM (inactive) | > 100 µM (inactive) | – | – | – | 43.4 µM (inactive) | – | 14.7 µM (inactive) | > 100 µM (inactive) | – | > 100 µM (inactive) | 22.3 µM (inactive) | 30.5 | – | 41.9 µM (inactive) |
| C/C(=N\NC(=S)NC(CCC(=O)O)C(=O)O)c1ccccn1 (stereo not drawn) | > 100 µM (inactive) | > 100 µM (inactive) | > 100 µM (inactive) | – | > 100 µM (inactive) | > 100 µM (inactive) | > 100 µM (inactive) | > 100 µM (inactive) | > 100 µM (inactive) | > 100 µM (inactive) | > 100 µM (inactive) | > 100 µM (inactive) | > 100 µM (inactive) | > 100 µM (inactive) | > 100 | > 100 µM (inactive) | > 100 µM (inactive) |
| O=C(Nc1ccccc1)OCc1nc2c([nH]1)C(=O)C=CC2=O | 22.2 µM (inactive) | 18.7 µM (inactive) | 12.5 µM (inactive) | 0.35 µM (active) | 16.1 µM (inactive) | 14 µM (inactive) | 16.5 µM (inactive) | – | – | 14.3 µM (inactive) | 15.9 µM (inactive) | 19.7 µM (inactive) | 14.3 µM (inactive) | 18.7 µM (inactive) | 18.2 | 3.34 µM (inactive) | 2.55 µM (inactive) |
| CCC12C[N+]3([O-])CCc4c([nH]c5ccccc45)C(C(=O)OC)(c4cc5c(cc4OC)N(C)C4C(O)(C(=O)OC)C(OC(C)=O)C6(CC)C=CCN7CCC54C76)CC(C3)C1O2 (stereo not drawn) | 3.94 µM (inactive) | – | 1.04 µM (active) | 5.93 µM (inactive) | 1.09 µM (active) | 5.62 µM (inactive) | 2.55 µM (inactive) | 0.063 µM (active) | 0.675 µM (active) | 0.288 µM (active) | 0.336 µM (active) | 0.323 µM (active) | 13.3 µM (inactive) | 0.331 µM (active) | 4.47 | 0.401 µM (active) | 0.207 µM (active) |
| COC1=CC(=O)C(Br)=CC1=O | > 10 µM (inactive) | – | – | 18.4 µM (inactive) | 18.2 µM (inactive) | 19.9 µM (inactive) | 36.3 µM (inactive) | 8.69 µM (inactive) | 18.6 µM (inactive) | 17.9 µM (inactive) | > 100 µM (inactive) | 17.6 µM (inactive) | 17.9 µM (inactive) | 21.6 µM (inactive) | 21.6 | 2.54 µM (inactive) | 3.06 µM (inactive) |
| COC(=O)/C(=N\NC(=O)c1ccccc1O)C(C#N)c1ccc(Cl)cc1 (stereo not drawn) | 34.9 µM (inactive) | – | 44.7 µM (inactive) | – | – | > 100 µM (inactive) | 30.3 µM (inactive) | 25.2 µM (inactive) | 13.2 µM (inactive) | 16.7 µM (inactive) | – | 3.69 µM (inactive) | 26.7 µM (inactive) | – | 33 | 36.8 µM (inactive) | 37.9 µM (inactive) |
